# Data taken from patent US20170268027A1, “METHOD FOR SYNTHESIS OF FATTY ACIDS” (priority 2014, published 2017).
# Like-named read-outs stand apart in the source and are kept apart here.
# How the values were obtained:
# Y. lipolytica = experiment: preliminary dose studies of cerulenin on growth of Y. lipolytica; format: cell-based, Yarrowia lipolytica; conditions: doses tested 1 to 25 mgcerulenin·gx^−1
# Yarrowia lipolytica W29 = experiment: Culture B: fed-batch culture of Y. lipolytica W29 under nitrogen limitation with cerulenin pulse (growth, fatty acid profile); format: cell-based; design: Length of the carbon chain: unit not given here
# [1] = tested on: Yarrowia lipolytica JMY3501; experiment: Culture D: fed-batch culture of Y. lipolytica JMY3501 with cerulenin pulse (fatty acid profile); format: cell-based
# Candida lypolytica = conditions: cited from earlier work
# [2] = between injection and 3 h after injection
# [3] = −2 h (before the pulse, baseline)
structure (smiles),measurement,setting,value
C/C=C/C/C=C/CCC(=O)[C@H]1O[C@H]1C(N)=O [cerulenin],dose that completely inhibits growth,Y. lipolytica,15 mgcerulenin·gx^−1
same,Degree of unsaturation,Yarrowia lipolytica W29; 0 h (time of the pulse),0.95
same,Length of the carbon chain,Yarrowia lipolytica W29; 0 h (time of the pulse),16.98
same,time of appearance of short-chain fatty acids after the pulse,Yarrowia lipolytica W29; 7 mgcerulenin·gx^−1,15 min
same,culture time after which the effect of partial inhibition of elongation kinetics disappeared,Yarrowia lipolytica W29; 7 mgcerulenin·gx^−1 pulse,9 h
same,increase of mass content of palmitic acid (C16:0) relative to before the pulse,Yarrowia lipolytica W29; 3 h after pulse,0.014 gAG·gx^−1
same,increase of mass content of palmitoleic acid (C16:1) relative to before the pulse,Yarrowia lipolytica W29; 3 h after pulse,0.023 gAG·gx^−1
same,Degree of unsaturation,Yarrowia lipolytica W29; +15 min. after the pulse,0.92
same,Length of the carbon chain,Yarrowia lipolytica W29; +15 min. after the pulse,16.83
same,Degree of unsaturation,Yarrowia lipolytica W29; +1 h after the pulse,0.73
same,Length of the carbon chain,Yarrowia lipolytica W29; +1 h after the pulse,16.3
same,Degree of unsaturation,Yarrowia lipolytica W29; +3 h after the pulse,0.75
same,Length of the carbon chain,Yarrowia lipolytica W29; +3 h after the pulse,15.3
same,accumulation of short-chain fatty acids,Yarrowia lipolytica W29; after 3 h of culture after the pulse of 7 mgcerulenin·gx^−1,24.5%
same,mass fraction of the fatty acid C18:3,Yarrowia lipolytica W29; after the pulse,6%
same,"mass fraction F4,8 multiplied by",Yarrowia lipolytica W29; at 3 h,70
same,"mass fraction F9,12 multiplied by",Yarrowia lipolytica W29; at 3 h,28
same,"mass fraction F13,15 multiplied by",Yarrowia lipolytica W29; at 3 h,15
same,factor of multiplication of the specific rate of synthesis of short-chain or medium-chain fatty acid,Yarrowia lipolytica W29; before vs 3 h after the pulse,14
same,average degree of unsaturation of neo-synthesised fatty acids,Yarrowia lipolytica W29; [2],0.6
same,average number of carbon atoms of neo-synthesised fatty acids,Yarrowia lipolytica W29; [2],12.74 carbon atoms
same,effect on the growth dynamic of the yeast,"Yarrowia lipolytica W29; dose 7 μgcerulenin·mgx^−1, nitrogen limitation",no effect
same,total fatty acids accumulated,Yarrowia lipolytica W29; during the 10 h following the cerulenin pulse,3%
same,variation of the growth rate,"Yarrowia lipolytica W29; during the 10 h following the first injection, 7 mgcerulenin·gx^−1",less than 5%
same,specific speed of production of fatty acid,Yarrowia lipolytica W29; following the addition of cerulenin (0.004 before),0.0017 gAG·gx·h^−1
same,variation of mass content of fatty acids C4:0-C8:0 relative to before the pulse,Yarrowia lipolytica W29; in 3 h,0.05 gAG·gx^−1
same,variation of mass content of fatty acids C9:0-C12:0 relative to before the pulse,Yarrowia lipolytica W29; in 3 h,0.07 gAG·gx^−1
same,variation of mass content of fatty acids C13:0-C15:0 relative to before the pulse,Yarrowia lipolytica W29; in 3 h,0.07 gAG·gx^−1
same,Degree of unsaturation,Yarrowia lipolytica W29; [3],0.97
same,Length of the carbon chain,Yarrowia lipolytica W29; [3],16.97
same,effect on accumulation of short-chain fatty acids,"[1]; 0.25 mgcerulenin·gx^−1, lipid accumulation phase",increase the accumulation of short-chain fatty acids
same,C12 content in the fatty acid composition,[1]; after pulse of 0.25 mgcerulenin·gx^−1 (4% before),7%
same,C14 content in the fatty acid composition,[1]; after pulse of 0.25 mgcerulenin·gx^−1 (7% before),14%
same,effect on growth,Candida lypolytica; substrate containing n-tetradecane to n-octadecane,without exerting any effect
same,effect on growth,Candida lypolytica; substrate containing n-undecane or n-dodecane,completely blocks the growth
